Measured values as given in ChEMBL document CHEMBL1201862, “PubChem BioAssay data set” (2004).
Where “and” joins values, the source holds several entries; their conditions need not be identical. Equal entries are not always repeated. Calls of active or inactive are those of the source.

What was measured:
[1] = biological target: T1, Heat shock factor protein 1 (Mus musculus, UniProt P38532); test: inhibition of MG132-induced HSE-luciferase signal, confirmation, cell-based, NIH3T3, luminescence, dose retest (AID 2382); assay type: functional;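 also: NIH3T3 fibroblasts with HSF1-driven luciferase reporter stressed by proteasome inhibitor MG132; luminescence from HSF1-driven luciferase expression after 8 hours of MG132 stress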
T1 sequence (P38532 whole entry): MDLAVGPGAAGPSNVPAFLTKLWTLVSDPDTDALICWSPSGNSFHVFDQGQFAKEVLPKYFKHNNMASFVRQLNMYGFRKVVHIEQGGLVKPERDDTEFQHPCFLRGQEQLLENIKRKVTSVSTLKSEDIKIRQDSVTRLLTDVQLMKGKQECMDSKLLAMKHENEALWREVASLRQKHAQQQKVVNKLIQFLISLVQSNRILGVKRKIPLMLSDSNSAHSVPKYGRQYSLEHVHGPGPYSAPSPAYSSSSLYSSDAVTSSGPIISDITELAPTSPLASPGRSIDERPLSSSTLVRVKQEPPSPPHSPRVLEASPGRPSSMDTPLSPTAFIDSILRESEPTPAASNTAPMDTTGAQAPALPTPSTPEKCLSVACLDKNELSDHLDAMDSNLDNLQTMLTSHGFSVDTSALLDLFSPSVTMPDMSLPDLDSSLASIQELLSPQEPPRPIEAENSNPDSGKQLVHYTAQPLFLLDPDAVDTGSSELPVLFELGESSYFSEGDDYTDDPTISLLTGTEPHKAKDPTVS

Cytochrome P450 2C19 = Cytochrome P450 2C19 (Homo sapiens, UniProt P33261); test: Cytochrome panel assay with activity outcomes. Panel member name: p450-cyp2c19 Compounds with AC50 equal or less than 10 uM are considered active; assay type: functional
Cytochrome P450 1A2 = biological target: T2, Cytochrome P450 1A2 (Homo sapiens, UniProt P05177);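 also: PubChem cytochrome P450 panel assay, CYP1A2 panel member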
T2 sequence (P05177 whole entry): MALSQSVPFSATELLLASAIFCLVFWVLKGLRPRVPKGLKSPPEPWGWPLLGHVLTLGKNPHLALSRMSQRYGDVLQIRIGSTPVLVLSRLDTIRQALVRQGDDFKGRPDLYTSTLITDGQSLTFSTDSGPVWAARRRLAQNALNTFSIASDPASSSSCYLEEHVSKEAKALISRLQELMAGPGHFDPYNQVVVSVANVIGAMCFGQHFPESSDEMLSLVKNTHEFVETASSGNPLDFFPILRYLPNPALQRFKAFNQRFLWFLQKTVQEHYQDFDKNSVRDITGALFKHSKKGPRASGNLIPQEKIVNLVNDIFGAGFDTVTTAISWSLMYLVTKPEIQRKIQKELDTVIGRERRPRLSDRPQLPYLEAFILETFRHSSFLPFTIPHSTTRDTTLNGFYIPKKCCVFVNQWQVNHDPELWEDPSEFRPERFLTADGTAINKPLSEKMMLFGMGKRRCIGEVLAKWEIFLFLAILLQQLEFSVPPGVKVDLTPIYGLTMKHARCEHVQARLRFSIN

Cytochrome P450 2C9 = Cytochrome P450 2C9 (Homo sapiens, UniProt P11712)
[2] = tested on: Streptococcus sp. 'group A'; test: growth inhibition of control SK(-) GAS strain, dose response, counter-screen for streptokinase expression inhibitor project, luminescence, kanamycin, BacTiterGlo, confirmation (AID 1900); assay type: functional, organism-based
Streptokinase A = biological target: T3, Streptokinase A (Streptococcus pyogenes serotype M1, UniProt P10520); test: S. pyogenes streptokinase expression inhibitors, potency, dose response, plasminogen activation absorbance, OD405 (AID 1914); assay type: functional, Streptococcus pyogenes M1 GAS;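 also: secreted streptokinase activity via plasminogen activation per viability signal from cell pellet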
T3 sequence (P10520 whole entry): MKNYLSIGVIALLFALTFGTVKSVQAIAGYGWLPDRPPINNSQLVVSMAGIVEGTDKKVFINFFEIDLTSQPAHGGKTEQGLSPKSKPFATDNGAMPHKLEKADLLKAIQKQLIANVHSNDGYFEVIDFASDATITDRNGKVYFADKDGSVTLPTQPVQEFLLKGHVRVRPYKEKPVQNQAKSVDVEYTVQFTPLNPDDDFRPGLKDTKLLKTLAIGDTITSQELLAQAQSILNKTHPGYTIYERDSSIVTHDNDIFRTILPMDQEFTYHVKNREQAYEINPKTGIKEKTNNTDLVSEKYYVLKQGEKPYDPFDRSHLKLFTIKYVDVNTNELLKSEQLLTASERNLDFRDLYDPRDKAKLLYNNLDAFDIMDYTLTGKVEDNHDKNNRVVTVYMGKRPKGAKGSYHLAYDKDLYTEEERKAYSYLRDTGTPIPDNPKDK

Streptococcus = test: Group A Streptococcus viability loss, dose response, counter-screen for streptokinase expression inhibitor project, luminescence, BacTiterGlo (AID 1915); assay type: functional, organism-based;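 also: potency for reduction of bacterial viability or growth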
Cytochrome P450 2D6 = Cytochrome P450 2D6 (Homo sapiens, UniProt P10635);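 also: CYP2D6 member of a cytochrome P450 panel assay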
Cytochrome P450 3A4 = Cytochrome P450 3A4 (Homo sapiens, UniProt P08684);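 also: CYP3A4 tested as one member of a cytochrome P450 panel screen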
[3] = Luminescence Cell-Based Dose Response HTS to Identify Activators of Luciferase Translation or Activity in H4 […] Cells. [Related pubchem assays: 1829 (Project Summary), 1814 (Primary HTS)]; assay type: functional
H4 = test: Luminescence Cell-Based Dose Response HTS to Identify Activators of 5'UTR Stem-Loop Driven Prion Protein mRNA Translation in H4 Neuroglioblastoma Cells. [Related pubchem assays: 1829 (Project Summary), 1814 (Primary HTS)]; assay type: functional; conditions: Homo sapiens

Sequence of Cytochrome P450 2D6 (P10635 whole entry): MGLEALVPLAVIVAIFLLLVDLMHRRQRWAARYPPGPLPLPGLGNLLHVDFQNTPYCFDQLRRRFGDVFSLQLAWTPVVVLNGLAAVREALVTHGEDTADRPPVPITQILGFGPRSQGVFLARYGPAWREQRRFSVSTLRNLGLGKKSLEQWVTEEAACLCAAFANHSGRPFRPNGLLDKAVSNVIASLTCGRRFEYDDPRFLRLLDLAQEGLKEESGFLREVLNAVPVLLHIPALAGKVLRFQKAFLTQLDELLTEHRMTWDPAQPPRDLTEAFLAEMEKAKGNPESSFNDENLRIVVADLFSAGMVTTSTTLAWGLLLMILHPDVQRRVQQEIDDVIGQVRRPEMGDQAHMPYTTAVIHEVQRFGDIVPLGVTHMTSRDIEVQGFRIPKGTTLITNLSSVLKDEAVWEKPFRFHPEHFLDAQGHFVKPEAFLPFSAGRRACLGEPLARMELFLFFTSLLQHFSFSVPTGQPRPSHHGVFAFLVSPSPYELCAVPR
Sequence of Cytochrome P450 2C19 (P33261 whole entry): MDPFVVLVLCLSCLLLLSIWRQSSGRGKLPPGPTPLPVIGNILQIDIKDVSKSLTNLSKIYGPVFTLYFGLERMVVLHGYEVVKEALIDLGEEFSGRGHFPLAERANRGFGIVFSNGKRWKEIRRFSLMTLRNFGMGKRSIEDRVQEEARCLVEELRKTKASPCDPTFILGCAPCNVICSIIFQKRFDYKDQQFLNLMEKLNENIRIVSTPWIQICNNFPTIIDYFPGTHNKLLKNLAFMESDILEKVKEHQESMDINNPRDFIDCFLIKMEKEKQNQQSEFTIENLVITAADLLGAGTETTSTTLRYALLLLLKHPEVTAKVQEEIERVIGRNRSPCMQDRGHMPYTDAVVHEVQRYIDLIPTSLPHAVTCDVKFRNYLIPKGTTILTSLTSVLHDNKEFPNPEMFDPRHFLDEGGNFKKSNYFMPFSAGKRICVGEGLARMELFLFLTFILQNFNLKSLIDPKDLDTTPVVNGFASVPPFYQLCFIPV
Sequence of Cytochrome P450 2C9 (P11712 whole entry): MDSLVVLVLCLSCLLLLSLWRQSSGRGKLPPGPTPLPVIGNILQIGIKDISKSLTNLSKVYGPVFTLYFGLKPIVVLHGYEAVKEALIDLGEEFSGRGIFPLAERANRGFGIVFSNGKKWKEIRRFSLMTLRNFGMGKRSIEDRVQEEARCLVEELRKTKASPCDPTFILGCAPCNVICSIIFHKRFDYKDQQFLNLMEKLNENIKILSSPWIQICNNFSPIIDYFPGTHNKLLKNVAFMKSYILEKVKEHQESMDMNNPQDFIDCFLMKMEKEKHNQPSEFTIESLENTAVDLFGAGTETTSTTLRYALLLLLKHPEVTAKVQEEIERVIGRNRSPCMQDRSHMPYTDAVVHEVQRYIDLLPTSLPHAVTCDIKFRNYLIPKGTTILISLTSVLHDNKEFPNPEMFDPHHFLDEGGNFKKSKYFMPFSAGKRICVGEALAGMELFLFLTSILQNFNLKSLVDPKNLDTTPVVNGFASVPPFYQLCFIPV
Sequence of Cytochrome P450 3A4 (P08684 whole entry): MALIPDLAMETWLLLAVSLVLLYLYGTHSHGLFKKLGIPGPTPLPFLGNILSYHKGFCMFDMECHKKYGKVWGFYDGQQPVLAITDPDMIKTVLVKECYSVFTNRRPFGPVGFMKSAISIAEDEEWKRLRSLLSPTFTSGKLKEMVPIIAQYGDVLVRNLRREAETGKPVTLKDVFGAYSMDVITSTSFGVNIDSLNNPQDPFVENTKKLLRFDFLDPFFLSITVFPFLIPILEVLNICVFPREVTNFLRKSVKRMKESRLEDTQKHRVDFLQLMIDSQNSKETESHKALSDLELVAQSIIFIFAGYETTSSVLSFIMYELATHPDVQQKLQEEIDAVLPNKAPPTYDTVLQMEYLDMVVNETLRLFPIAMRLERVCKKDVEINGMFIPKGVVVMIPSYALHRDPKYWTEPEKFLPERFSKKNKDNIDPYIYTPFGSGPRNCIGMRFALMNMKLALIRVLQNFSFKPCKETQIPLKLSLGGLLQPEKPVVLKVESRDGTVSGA

COC(=O)[C@H](C)NC(=O)NCCC1=CCCCC1
EC50 [1]: > 195 µM (not active)

Cc1ccccc1N1CCN(C(=O)c2ccccc2NC(=O)/C=C\C(=O)O)CC1
AC50 (Cytochrome P450 2C19; read-out: AC50): 28.2 µM (inconclusive)

OC1/C(=C/c2ccccc2C(F)(F)F)N2CCC1CC2 (stereo not given)
EC50 [1]: > 195 µM (not active)

N[C@@H](C(=O)O)c1ccc(P(=O)(O)O)cc1
AC50 (Cytochrome P450 1A2): 20 µM (inconclusive)
AC50 (Cytochrome P450 2C9): 31.6 µM (inconclusive)

Cc1ccc(/C=C2/Sc3ccc(C(=O)N4CCN(C)CC4)cc3NC2=O)cc1
EC50 [2]: 7.17 µM (active)
EC50 (Streptokinase A): > 150 µM (not active)
EC50 (Streptococcus): 14.2 µM (active)

Sc1nnc(-c2ccncc2)n1Cc1ccco1
EC50 [1]: > 195 µM (not active)

CCOC(=O)C(=NC(C)(C)C)NNc1cc(Cl)ccc1Cl
EC50 [2]: 4.52 µM (active)
EC50 (Streptokinase A): 7.59 µM (active)
EC50 (Streptococcus): 21.1 µM (active)

CCn1c(O)c(C(c2ccccn2)c2c(O)n(CC)c(=S)[nH]c2=O)c(=O)[nH]c1=S
AC50 (Cytochrome P450 2C19; read-out: AC50): 0.00562 µM (inconclusive)
AC50 (Cytochrome P450 2C9): 31.6 µM (inconclusive)

O=C(NCCCN1CCC(Cc2ccccc2)CC1)C1CC(=O)N(C2CCCC2)C1 (stereo not given)
EC50 [1]: > 195 µM (not active)

CC(=O)C1C(c2ccccc2OC(F)F)NC(=O)NC1(O)C(F)(F)F (stereo not given)
AC50 (Cytochrome P450 1A2): 5.01 µM (inconclusive)
AC50 (Cytochrome P450 2C9): 15.8 µM (inconclusive)

COc1ccc(N2CCN(C(=O)c3cccc(Br)c3)CC2)c([N+](=O)[O-])c1
EC50 [1]: > 195 µM (not active)

COc1cccc(-c2cccc(NC(=O)C3CCN(Cc4ccon4)CC3)c2)c1
EC50 [1]: > 195 µM (not active)

COc1ccc2c(c1O)-c1cccc3c1[C@H](C2)N(C)CC3
AC50 (Cytochrome P450 2C19; read-out: AC50): 7.94 µM (inconclusive)
AC50 (Cytochrome P450 2D6): 31.6 µM (inconclusive)
AC50 (Cytochrome P450 3A4): 15.8 µM (inconclusive)

COc1ccccc1N1CCN(C(c2ccc(N(C)C)cc2)c2nnnn2CCc2ccccc2)CC1 (stereo not given)
EC50 [1]: > 195 µM (not active)

COc1ccc(C2N(c3ccccn3)C(=O)C3CCCN32)c(OC)c1 (stereo not given)
AC50 (Cytochrome P450 2C19; read-out: AC50): 28.2 µM (inconclusive)
AC50 (Cytochrome P450 1A2): 0.00631 µM (inconclusive)
AC50 (Cytochrome P450 3A4): 22.4 µM (inconclusive)

Oc1ccccc1/C=N/NC(=S)NC1CC2CCC1C2 (stereo not given)
EC50 [2]: 4.8 µM (active)
EC50 (Streptokinase A): > 150 µM (not active)
EC50 (Streptococcus): 8.53 µM (active)

CC(C)c1c(C(=O)N/N=C/c2cccc(OCc3ccc(F)cc3)c2)nnn1-c1nonc1N
EC50 [2]: 4.9 µM (active)
EC50 (Streptokinase A): 2.1 µM (active)
EC50 (Streptococcus): 23.1 µM (active)

CC(C)CC(=O)O/N=C1\C(=O)N(c2ccccc2)c2ccccc21
AC50 (Cytochrome P450 2C19; read-out: AC50): 5.62 µM (inconclusive)
AC50 (Cytochrome P450 1A2): 3.55 µM (inconclusive)
AC50 (Cytochrome P450 2C9): 6.31 µM (inconclusive)

COc1ccc(C/C(C)=N/NC(=S)Nc2ccccc2F)cc1
EC50 [1]: 96.9 µM (active)

S=C(N/N=C/c1ccc(Br)cc1)N1CCCCC1
EC50 [3]: 0.174 µM (active)
EC50 (H4): 96.7 µM (active)

O=C(O)[C@H]1CN[C@H](C(=O)O)C1
AC50 (Cytochrome P450 2C19): inconclusive
AC50 (Cytochrome P450 2D6): 39.8 µM (inconclusive)
AC50 (Cytochrome P450 1A2): 31.6 µM (inconclusive)

CC1=NN=C(c2ccc(N)cc2)c2cc3c(cc2C1)OCO3 [GYKI-52466]
AC50 (Cytochrome P450 2D6): 25.1 µM (inconclusive) and 31.6 µM (inconclusive)
AC50 (Cytochrome P450 1A2): 31.6 µM (inconclusive)

CCN(CC)CCOC(=O)[C@@H](Cc1cccc2ccccc12)C[C@@H]1CCCO1 [NAFTIDROFURYL]
AC50 (Cytochrome P450 2D6): 5.01 µM (inconclusive)
AC50 (Cytochrome P450 1A2): 10 µM (inconclusive)
